Data: patent publication US8933113B2 (Merck Sharp & Dohme Corp., priority 2011, dated 2015)

target: T1, full-length human Mineralocorticoid Receptor (MR) (Homo sapiens, UniProt P08235); test: human MR NH Pro assay (PathHunter Protein:Protein interaction assay), MR antagonist activity; type: cell-based; conditions: PathHunter CHO-K1 cells overexpressing human MR; aldosterone about 0.3 nM; 6 hours at 37° C.; luminescence; read-out: Primary Assay IP rating (IP = inflection point for a given dose-response titration curve)
T1 construct: host or cells: PathHunter CHO-K1 cells
T1 sequence (P08235 1-984): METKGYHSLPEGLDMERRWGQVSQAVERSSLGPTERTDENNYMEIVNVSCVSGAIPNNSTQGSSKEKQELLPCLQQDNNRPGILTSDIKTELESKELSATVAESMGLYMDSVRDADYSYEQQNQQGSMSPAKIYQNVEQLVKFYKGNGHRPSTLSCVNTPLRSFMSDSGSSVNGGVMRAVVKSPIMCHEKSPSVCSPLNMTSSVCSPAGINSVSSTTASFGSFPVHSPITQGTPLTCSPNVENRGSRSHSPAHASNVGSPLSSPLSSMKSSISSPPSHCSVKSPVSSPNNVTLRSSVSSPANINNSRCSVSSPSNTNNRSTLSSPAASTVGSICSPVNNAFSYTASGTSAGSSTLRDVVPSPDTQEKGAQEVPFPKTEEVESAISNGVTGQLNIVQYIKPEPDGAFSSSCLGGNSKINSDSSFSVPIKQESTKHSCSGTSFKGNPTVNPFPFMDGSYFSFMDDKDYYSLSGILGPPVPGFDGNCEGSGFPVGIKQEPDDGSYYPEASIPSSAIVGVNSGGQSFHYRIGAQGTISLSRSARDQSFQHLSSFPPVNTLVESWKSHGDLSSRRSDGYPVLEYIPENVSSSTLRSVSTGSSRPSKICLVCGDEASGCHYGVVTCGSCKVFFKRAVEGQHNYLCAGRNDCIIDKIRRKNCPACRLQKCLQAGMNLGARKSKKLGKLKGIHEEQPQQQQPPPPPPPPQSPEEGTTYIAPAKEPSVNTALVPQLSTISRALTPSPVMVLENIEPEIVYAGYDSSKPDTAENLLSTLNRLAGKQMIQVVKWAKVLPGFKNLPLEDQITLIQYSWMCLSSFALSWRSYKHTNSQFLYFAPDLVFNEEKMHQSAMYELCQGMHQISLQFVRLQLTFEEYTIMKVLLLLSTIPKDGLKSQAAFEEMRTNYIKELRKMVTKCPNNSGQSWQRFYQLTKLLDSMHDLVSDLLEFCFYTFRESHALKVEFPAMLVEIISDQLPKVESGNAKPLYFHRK
Procedure, shortened: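 PathHunter enzyme-complementation assay in cells of full-length human MR recruitment of a coactivator peptide, run in antagonist mode against aldosterone at about 0.3 to 1.0 nM final. Compounds are in a 10-point, 1:3 series from a 4.4 mM top. Incubation is 6 h at 37° C, then detection reagent for 1 h at RT, with a luminescence read-out.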

IC50, < 100 nM:
CCC(CCC#N)(c1ccc(Cl)cc1)n1ccc2c(NS(C)(=O)=O)cccc21 (single isomer, unassigned) [Compound 140, N-(1-(3-(4-chlorophenyl)-1-cyanopentan-3-yl)-1H-indol-4-yl)methanesulfonamide]
CCC(C(C)=O)(c1ccc(Cl)cc1)n1ncc2c(NS(C)(=O)=O)cccc21 (single isomer, unassigned) [Compound 100, N-(1-(3-(4-chlorophenyl)-2-oxopentan-3-yl)-1H-indazol-4-yl)methanesulfonamide]
CCC(C(C)=O)(c1ccc(Cl)cc1)n1ccc2c(NS(C)(=O)=O)cccc21 (centres unmarked) [Compound 99, N-(1-(3-(4-chlorophenyl)-2-oxopentan-3-yl)-1H-indol-4-yl)methanesulfonamide]
CCC(CO)(c1ccc(Cl)cc1)n1ncc2c(NS(C)(=O)=O)cccc21 (single isomer, unassigned) [Compound 88, N-(1-(2-(4-chlorophenyl)-1-hydroxybutan-2-yl)-1H-indazol-4-yl)methanesulfonamide]
CCC(/C=C/C#N)(c1ccc(Cl)cc1)n1ncc2c(N(S(C)(=O)=O)S(C)(=O)=O)cc(F)cc21 (centres unmarked) [Compound 136, (E)-N-(1-(3-(4-chlorophenyl)-1-cyanopent-1-en-3-yl)-6-fluoro-1H-indazol-4-yl)-N-(methylsulfonyl)methanesulfonamide]
CCC(c1ccc(Cl)cc1)(C(C)O)n1ccc2c(NS(C)(=O)=O)cc(F)cc21 (single isomer, unassigned) [Compound 111, N-(1-(3-(4-chlorophenyl)-2-hydroxypentan-3-yl)-6-fluoro-1H-indol-4-yl)methanesulfonamide]
CCC(/C=C/C#N)(c1ccc(Cl)cc1)n1ncc2c(NS(C)(=O)=O)cccc21 (centres unmarked) [Compound 129, (E)-N-(1-(3-(4-chlorophenyl)-1-cyanopent-1-en-3-yl)-1H-indazol-4-yl)methanesulfonamide]
CCC(c1ccc(Cl)cc1Cl)(C(C)O)n1ccc2c(NS(C)(=O)=O)cccc21 (centres unmarked) [Compound 110, N-(1-(3-(2,4-dichlorophenyl)-2-hydroxypentan-3-yl)-1H-indol-4-yl)methanesulfonamide]
CCC(c1ccc(Cl)cc1)(c1nc(C)no1)n1ccc2c(NS(C)(=O)=O)cccc21 (single isomer, unassigned) [Compound 150, N-(1-(1-(4-chlorophenyl)-1-(3-methyl-1,2,4-oxadiazol-5-yl)propyl)-1H-indol-4-yl)methanesulfonamide]
CCC(CC#N)(c1ccc(Cl)cc1)n1ccc2c(NS(C)(=O)=O)cccc21 (single isomer, unassigned) [Compound 121, N-(1-(2-(4-chlorophenyl)-1-cyanobutan-2-yl)-1H-indol-4-yl)methanesulfonamide]

IC50, 100 to 500 nM:
CC[C@@](c1ccc(Cl)cc1)(c1nnc(C)[nH]1)n1ccc2c(NS(C)(=O)=O)cccc21 [Compound 65, (R)—N-{1-[1-(4-chlorophenyl)-1-(5-methyl-4H-1,2,4-triazol-3-yl)propyl]-1H-indol-4-yl}methanesulfonamide]
CCC(c1ccc(Cl)cc1)(n1ncc2c(NS(=O)(=O)N(C)C)cccc21)C(C)(C)O (centres unmarked) [Compound 95, 3-(1-(3-(4-chlorophenyl)-2-hydroxy-2-methylpentan-3-yl)-1H-indazol-4-yl)-1,1-dimethyl-sulfonylurea]
CCC(C(=O)OC)(c1ccc(F)cc1Cl)n1ccc2c(NS(C)(=O)=O)cccc21 (centres unmarked) [Compound 31, Methyl 2-(2-chloro-4-fluorophenyl)-2-{4-[(methylsulfonyl)amino]-1H-indol-1-yl}butanoate]

IC50, 500 to 5000 nM:
COC(=O)C(C)(c1ccc(Cl)cc1Cl)n1ccc2c(NS(C)(=O)=O)cccc21 (centres unmarked) [Compound 29, Methyl 2-(2,4-dichlorophenyl)-2-{4-[(methylsulfonyl)amino]-1H-indol-1-yl}propanoate]
